The results in this text go back to US5691366A, “Nitro compounds, process for preparation thereof and use thereof” (Fujisawa Pharmaceutical Co., Ltd., priority 1991, dated 1997).

Assay [1] deals with Mean Arterial Blood Pressure in Conscious Rats. Briefly: Effect on mean arterial blood pressure in conscious rats (oral). The note with it: for Hypotensive effect T 1/2: time to recover to half of maximal decrease; for Hypotensive effect Dur.: time to recover to 5% of maximal decrease; for inhibition in vivo at 10 mg/kg / inhibition in vivo at 32 mg/kg: Rattus norvegicus, po, maximal % decrease of mean blood pressure, read-out: Hypotensive effect R max. Type of assay: in vivo, rat (male Sprague-Dawley). On the procedure:
Male Sprague-Dawley rats, aged 9-11 weeks, were anesthetized with ether and a polyethylene cannula filled with heparin solution was inserted into the femoral artery of the rats to measure mean blood pressure. Mean blood pressure was measured with a pressure transducer and recorded on a polygraph. Two hours after operation, the drug suspended in 0.5% methyl cellulose was administered orally in a volume of 5 ml/kg. Oral hypotensive effects of each compound were expressed as the maximal decrease (R max), the half time (T 1/2) and the duration (Dur.). Briefly, R max was expressed as maximal % change compared to mean blood pressure prior to the administration of compound. T 1/2 was expressed as a time during which the hypotensive effect recovered to half of the maximal decrease. Duration was expressed as a time during which the hypotensive effect recovered to 5% of the maximal decrease.

The subject of assay [2] is Mean Arterial Blood Pressure in Anesthetized Rats. Briefly: Effect on mean arterial blood pressure in anesthetized rats (intravenous). The note with it: for Hypotensive effect T 1/2: i.v., time to recover to half of maximal decrease; for inhibition in vivo at 0.32 mg/kg / inhibition in vivo at 1 mg/kg: Rattus norvegicus, iv, maximal % decrease of mean blood pressure, read-out: Hypotensive effect R max. Type of assay: in vivo, rat (male Sprague-Dawley). The protocol: Male Sprague-Dawley rats, aged 9-12 weeks, were anesthetized with urethane (1.4 g/kg i.p.). A polyethylene cannula filled with heparin solution was inserted into the femoral artery of the rats to measure mean blood pressure. Mean blood pressure was measured with a pressure transducer and recorded on a polygraph. The test compound dissolved in ethanol, polyethylene glycol and distilled water (1:1:2), were administered intraveneously in a volume of 0.25 ml/kg. Intravenous hypothypotensive effects of each compound were expressed as the maximal decrease (R max) and the half time (T 1/2). Briefly, R max was expressed as maximal % change compared to mean blood pressure prior to the administration of compound. T 1/2 was expressed as a time during which the hypotensive effect recovered to half of the maximal decrease.

On to `CCC(=CC(CNC(=O)c1cccnc1C)=NO)C(C)[N+](=O)[O-]` (single isomer, unassigned) [Example 30 B, N-(4-Ethyl-2-hydroxyimino-5-nitro-3-hexen-1-yl)-2-methyl-3-pyridinecarboxamide], for which the “Hypotensive effect T 1/2” value turned out to be 20.9 min in assay [1] (10 mg/kg) and 13.0 min in assay [2] (0.32 mg/kg).

Consider `CC(=CC(CNC(=O)c1cccnc1)=NO)C(C)[N+](=O)[O-]` (single isomer, unassigned) [Example 19 A, N-(2-Hydroxyimino-4-methyl-5-nitro-3-hexen-1-yl)-3-pyridinecarboxamide], for which, in assay [2] (0.32 mg/kg), the inhibition in vivo at 0.32 mg/kg worked out at 40.3% and the “Hypotensive effect T 1/2” value turned out to be 12.6 min.

In the case of `CCC(=CC(CNC(=O)c1ccncc1)=NO)C(C)[N+](=O)[O-]` (stereo not drawn) [Example 29, N-(4-Ethyl-2-hydroxyimino-5-nitro-3-hexen-1-yl)-4-pyridinecarboxamide], in assay [1] (10 mg/kg), the “Hypotensive effect Dur.” value turned out to be 72.5 min, the “Hypotensive effect T 1/2” value is 23.5 min and the inhibition in vivo at 10 mg/kg turned out to be 31.4%. In assay [1] (32 mg/kg), the “Hypotensive effect Dur.” value was > 300 min, the “Hypotensive effect T 1/2” value was 165 min and the inhibition in vivo at 32 mg/kg turned out to be 37.1%. Moreover, in assay [2] (0.32 mg/kg), the inhibition in vivo at 0.32 mg/kg amounted to 35% and the “Hypotensive effect T 1/2” value came out at 12.3 min.

With `CCC(=CC(CNC(=O)C(N)=O)=NO)C(C)[N+](=O)[O-]` (stereo not drawn) [Example 40], in assay [2] (0.32 mg/kg), the inhibition in vivo at 0.32 mg/kg is 52.3% and the “Hypotensive effect T 1/2” value was determined as 11.3 min.

Take `CCC(=CC(CNC(=O)c1cccnc1)=NO)C(CC)[N+](=O)[O-]` (single isomer, unassigned) [Example 25 B, N-(4-Ethyl-2-hydroxyimino-5-nitro-3-hepten-1-yl)-3-pyridinecarboxamide]: the “Hypotensive effect T 1/2” value in assay [1] (10 mg/kg) turned out to be 14.6 min.

Consider `CCC(=CC(CNC(=O)c1cccnc1C)=NO)C(C)[N+](=O)[O-]` (single isomer, unassigned) [Example 30 A, N-(4-Ethyl-2-hydroxyimino-5-nitro-3-hexen-1-yl)-2-methyl-3-pyridinecarboxamide], for which, in assay [1] (10 mg/kg), the “Hypotensive effect Dur.” value came to 108.0 min, the “Hypotensive effect T 1/2” value came to 36.0 min and the inhibition in vivo at 10 mg/kg was 40.6%. In assay [1] (32 mg/kg), the “Hypotensive effect Dur.” value turned out to be 211.1 min, the “Hypotensive effect T 1/2” value worked out at 56.2 min and the inhibition in vivo at 32 mg/kg amounted to 39.3%. In assay [2] (0.32 mg/kg), the inhibition in vivo at 0.32 mg/kg stood at 37.9% and the “Hypotensive effect T 1/2” value stood at 16.9 min.

`CCC(=CC(CNC(=O)C(N)=O)=NO)C(C)[N+](=O)[O-]` (stereo not drawn) [Example 40 A]: in assay [1] (10 mg/kg), the “Hypotensive effect Dur.” value amounted to 71.1 min, the “Hypotensive effect T 1/2” value stood at 25.2 min and the inhibition in vivo at 10 mg/kg came to 47.8%.

Turning to `CCC(=CC(CNC(=O)c1cccnc1Cl)=NO)C(C)[N+](=O)[O-]` (stereo not drawn) [Example 32, N-(4-Ethyl-2-hydroxyimino-5-nitro-3-hexen-1-yl)-2-chloro-3-pyridinecarboxamide], in assay [1] (10 mg/kg), the “Hypotensive effect Dur.” value was determined as 50.9 min, the “Hypotensive effect T 1/2” value stood at 19.6 min and the inhibition in vivo at 10 mg/kg was found to be 43.2%. For the same compound, in assay [2] (0.32 mg/kg), the inhibition in vivo at 0.32 mg/kg worked out at 42.5% and the “Hypotensive effect T 1/2” value was found to be 13.6 min.

For `CCC(=CC(CNC(=O)c1cccnc1)=NO)C(CC)[N+](=O)[O-]` (single isomer, unassigned) [Example 25 A, N-(4-Ethyl-2-hydroxyimino-5-nitro-3-hepten-1-yl)-3-pyridinecarboxamide], the “Hypotensive effect T 1/2” value in assay [1] (10 mg/kg) was determined as 22.5 min. For the same compound, in assay [1] (32 mg/kg), the “Hypotensive effect T 1/2” value came to 56.7 min and the inhibition in vivo at 32 mg/kg came to 26%. In assay [2] (0.32 mg/kg), the inhibition in vivo at 0.32 mg/kg turned out to be 24.1% and the “Hypotensive effect T 1/2” value amounted to 13.1 min.

`CCC(C(C)=CC(CNC(=O)c1cccnc1)=NO)[N+](=O)[O-]` (single isomer, unassigned) [Example 18 A, N-(2-hydroxyimino-4-methyl-5-nitro-3-hepten-1-yl)-3-pyridinecarboxamide]: in assay [1] (10 mg/kg), the “Hypotensive effect Dur.” value turned out to be 57.0 min, the “Hypotensive effect T 1/2” value was 40.1 min and the inhibition in vivo at 10 mg/kg came to 25.7%. Moreover, in assay [1] (32 mg/kg), the “Hypotensive effect Dur.” value was 156.4 min, the “Hypotensive effect T 1/2” value turned out to be 88.7 min and the inhibition in vivo at 32 mg/kg was 46.9%. Also, the inhibition in vivo at 0.32 mg/kg in assay [2] (0.32 mg/kg) stood at 10.2%. Moreover, in assay [2] (1.0 mg/kg), the inhibition in vivo at 1 mg/kg came to 33.6% and the “Hypotensive effect T 1/2” value was found to be 31.5 min.

As for `CCC(=CC(CNC(=O)c1nc[nH]c1C)=NO)C(C)[N+](=O)[O-]` (single isomer, unassigned) [Example 45 A, N-(4-Ethyl-2-hydroxyimino-5-nitro-3-hexen-1-yl)-5-methy-4-imidazolecarboxamide], in assay [1] (10 mg/kg), the “Hypotensive effect Dur.” value is 52.3 min, the “Hypotensive effect T 1/2” value turned out to be 26.6 min and the inhibition in vivo at 10 mg/kg is 35.4%. In assay [2] (0.32 mg/kg), the inhibition in vivo at 0.32 mg/kg was 31.2% and the “Hypotensive effect T 1/2” value is 11.9 min.

Take `O=C(NCC(C=C1CCCCC1[N+](=O)[O-])=NO)c1cccnc1` (stereo not drawn) [Example 21, N-[2-Hydroxyimino-3-(2-nitrocyclohexylidene)propyl]-3-pyridinecarboxamide]: in assay [1] (10 mg/kg), the “Hypotensive effect Dur.” value was found to be 67.7 min, the “Hypotensive effect T 1/2” value was found to be 34.1 min and the inhibition in vivo at 10 mg/kg was 34.3%. In assay [1] (32 mg/kg), the “Hypotensive effect Dur.” value was > 300 min, the “Hypotensive effect T 1/2” value worked out at 88.1 min and the inhibition in vivo at 32 mg/kg is 34.3%. Also, in assay [2] (0.32 mg/kg), the inhibition in vivo at 0.32 mg/kg amounted to 26.5% and the “Hypotensive effect T 1/2” value turned out to be 13.1 min.

Regarding `CCC(=CC(CNC(=O)c1cnccc1C(N)=O)=NO)C(C)[N+](=O)[O-]` (stereo not drawn) [Example 28, 3-[N-(4-Ethyl-2-hydroxyimino-5-nitro-3-hexen-1-yl)-carbamoyl]-4-pyridinecarboxamide], the inhibition in vivo at 0.32 mg/kg in assay [2] (0.32 mg/kg) came to 22.2%. In assay [2] (1.0 mg/kg), the inhibition in vivo at 1 mg/kg turned out to be 31.4% and the “Hypotensive effect T 1/2” value is 11.9 min.

With `CCC(=CC(CNC(=O)c1ccc(C)nc1)=NO)C(C)[N+](=O)[O-]` (stereo not drawn) [Example 35, N-(4-Ethyl-2-hydroxyimino-5-nitro-3-hexen-1-yl)-6-methyl-3-pyridinecarboxamide], in assay [1] (10 mg/kg), the “Hypotensive effect T 1/2” value is 24.1 min and the inhibition in vivo at 10 mg/kg stood at 31.1%. In assay [2] (0.32 mg/kg), the inhibition in vivo at 0.32 mg/kg was 41.7% and the “Hypotensive effect T 1/2” value is 13.7 min.

For `CCC(=CC(CNC(=O)c1cccnc1SC)=NO)C(C)[N+](=O)[O-]` (single isomer, unassigned) [Example 31 A, N-(4-Ethyl-2-hydroxyimino-5-nitro-3-hexen-1-yl)-2-methylthio-3-pyridinecarboxamide], in assay [1] (10 mg/kg), the “Hypotensive effect T 1/2” value was 10.4 min and the inhibition in vivo at 10 mg/kg came out at 14.9%. In addition, the inhibition in vivo at 0.32 mg/kg in assay [2] (0.32 mg/kg) was 24.3%.

In the case of `CCC(C(C)=CC(CNC(=O)c1cccnc1)=NO)[N+](=O)[O-]` (single isomer, unassigned) [Example 18 B, N-(2-hydroxyimino-4-methyl-5-nitro-3-hepten-1-yl)-3-pyridinecarboxamide], the “Hypotensive effect Dur.” value in assay [1] (10 mg/kg) came out at 54.7 min; in assay [1] (32 mg/kg), 97.2 min. In addition, the “Hypotensive effect T 1/2” value in assay [1] (10 mg/kg) turned out to be 26.4 min; in assay [1] (32 mg/kg) it was 56.1 min; in assay [2] (1.0 mg/kg) it was 20.2 min.

As for `CCC(=CC(CNC(=O)c1cccnc1O)=NO)C(C)[N+](=O)[O-]` (single isomer, unassigned) [Example 33 A, N-(4-Ethyl-2-hydroxyimino-5-nitro-3-hexen-1-yl)-2-hydroxy-3-pyridinecarboxamide], in assay [1] (10 mg/kg), the “Hypotensive effect T 1/2” value stood at 18.3 min and the inhibition in vivo at 10 mg/kg is 23.1%. Also, in assay [2] (0.32 mg/kg), the inhibition in vivo at 0.32 mg/kg was found to be 20.9% and the “Hypotensive effect T 1/2” value is 11.9 min.

Regarding `CC(=CC(CNC(=O)c1cccnc1)=NO)C(C)[N+](=O)[O-]` (single isomer, unassigned) [Example 19 B, N-(2-Hydroxyimino-4-methyl-5-nitro-3-hexen-1-yl)-3-pyridinecarboxamide], the “Hypotensive effect T 1/2” value in assay [2] (0.32 mg/kg) worked out at 11.0 min.

As to `CCC(=CC(CNC(=O)c1sc(C)nc1C)=NO)C(C)[N+](=O)[O-]` (stereo not drawn) [Example 43, N-(4-Ethyl-2-hydroxyimino-5-nitro-3-hexen-1-yl)-2,4-dimethylthiazole-5-carboxamide], the inhibition in vivo at 0.32 mg/kg in assay [2] (0.32 mg/kg) came to 53.1%.

Take `CCC(=CC(CNC(=O)Cc1cccnc1)=NO)C(C)[N+](=O)[O-]` (stereo not drawn) [Example 42, N-(4-Ethyl-2-hydroxyimino-5-nitro-3-hexen-1-yl)-3-pyridylacetamide]: in assay [2] (0.32 mg/kg), the inhibition in vivo at 0.32 mg/kg stood at 44.4% and the “Hypotensive effect T 1/2” value was found to be 14.2 min.
